The data set is described as follows: pKa (acid dissociation constant). The format is physicochemical. The text has this:
Here, the pKa value is also called an acid dissociation constant, and the pKa can be measured by an ordinary method. For example, the pKa can be determined in accordance with the method described in Experimental Chemistry Seminar 5 “Thermal Measurement and Equilibrium”, p. 460 (edited by the Chemical Society of Japan, published by Maruzen Company, Limited.).
As for `Oc1ccc(F)c(F)c1F` [2,3,4-Trifluorophenol], the pKa (as a rule, the pH at which an ionisable group is half protonated) stood at 6.
With `Oc1c(F)c(F)cc(F)c1F` [2,3,5,6-Tetrafluorophenol] the figure was 5.5; with `Oc1ccc(F)cc1F` [2,4-Difluorophenol], 8.4; with `Oc1ccc(F)cc1` [4-Fluorophenol], 9.9.
With `Oc1c(Cl)c(Cl)c(Cl)c(Cl)c1Cl` [Pentachlorophenol] the figure was 4.7.

These data come from patent US20110281179A1, “NON-AQUEOUS ELECTROLYTIC SOLUTION, AND LITHIUM BATTERY COMPRISING SAME” (UBE INDUSTRIES, LTD., priority 2008, published 2011).
